# In patent publication US20240358748A1, “AMORPHOUS DISPERSION OF FERRIC MALTOL AND THE PREPARATION PROCESS THEREOF” (Indena S.P.A., priority 2021, published 2024):
# Assay: Accelerated stability study (solid form checked by X-ray powder diffraction)
# Assay type: physicochemical
# Conditions: after 12 days at room temperature and relative humidity of 75%±5%
# Procedure: The X-ray diffraction pattern was recorded on a Bruker D2-Phaser diffractometer. The X-ray generator was set to 30 kV and 10 mA, using Cuk as radiation source. The sample was prepared in a sample holder and irradiated for an irradiation length of 10 mm. The data were recorded between 2 and 50 2θ degrees every 0.02 2θ degrees, with a recording time of 3 seconds per 2θ degree.
# The amorphous solid dispersion prepared according to Example 1, and ferric maltol in amorphous form, prepared according to the procedure reported in Example 1 but without the addition of Soluplus®, underwent an accelerated stability study.
structure (smiles),measurement,setting,value
"Cc1occc(=O)c1[O-].Cc1occc(=O)c1[O-].Cc1occc(=O)c1[O-].[Fe+3] [ferric maltol in amorphous form, 3-hydroxy-2-methyl-4H-pyran-4-one: iron (III) (3:1)]",solid form after storage (X-ray diffractogram),,attributable to ferric maltol Form I
same,solid form after storage (X-ray diffractogram),listed as ferric maltol,"tends to be converted, at least partly, to a crystalline structure"
